Measured values reported in patent publication US8318808B2, “Zn2+chelating motif-tethered short-chain fatty acids as a novel class of histone deacetylase inhibitors” (The Ohio State University Research Foundation, priority 2007, dated 2012).
pIC50: −log10 of the molar value. Read-outs that look alike come from different tables or passages of the source. Each block holds one molecule with its values, some of them ahead of it.

Legend:
[1] = target: histone deacetylase (HDAC) activity of DU-145 nuclear extract; test: In vitro HDAC assay (histone deacetylase assay kit, [3H]-acetyl histone H4 peptide); type: biochemical
Experimental: In vitro HDAC assay. HDAC activity was analyzed by using a histone deacetylase assay kit (Upstate Biotechnology, Lake Placid, N.Y.) by following the manufacturer's instruction with slight modifications. […] The release of [^3 H]-acetate into the supernatant was measured to calculate the HDAC activity. Sodium butyrate (0.25-1 mM) was used as a positive control.

[2] = test system: acetylated histones H3 and H4 and p21WAF/CIP1 in DU-145 cells; test: Western blot of histone acetylation and p21WAF/CIP1 expression in DU-145 cells; type: cell-based; conditions: for levels of acetylated histones H3 and H4, and p21WAF/CIP1: 10% FBS, HTPB 0.5-[…], TSA 0.25-0.5 μM, phenylbutyrate 1-5 mM
Experimental: Western blot analysis. DU-145 cells (1×10^6) treated with HTPB at the indicated concentrations in 10% FBS-supplemented RPMI 1640 medium for 24 h were collected, and sonicated. Protein concentrations of the lysates were determined by using a Bradford protein assay kit (Bio-Rad, Hercules, Calif.); equivalent amounts of proteins from each lysate were resolved in 10% SDS-polyacrylamide gel, and then transferred onto Immobilon-nitrocellulose membranes (Millipore, Bellerica, Mass.) in a semi-dry transfer cell. The transblotted membrane was washed twice with Tris-buffered saline (TBS) containing 0.1% Tween 20 (TBST). After blocking with TBST containing 5% nonfat milk for 40 min, the membrane was incubated with the primary antibody (1:1000 dilution) in TBST-1% nonfat milk at 4° C. overnight. After treatment with the primary antibody, the membrane was washed three times with TBST for a total of 15 min, followed by goat anti-rabbit or anti-mouse IgG-horseradish peroxidase conjugates (diluted 1:3000) for 1 h at room temperature and wash three times with TBST for a total of 1 h. The immunoblots were visualized by enhanced chemiluminescence.
DU-145 cells were exposed to HTPB at 0.5, 1, 2.5 μM, TSA at 0.25 and 0.5 μM, or phenylbutyrate at 1, 2.5, and 5 mM in 10% FBS-supplemented RPMI 1640 medium for 24 h. […] The effect of 1 μM HTPB on these biomarkers approximated that of 0.25 μM TSA, or 2.5 mM phenylbutyrate.

[3] = test system: ERKs; test: Phosphorylation level of ERKs in PC-3 cells; type: cell-based
Description: (§1) This dephosphorylating effect, however, is kinase-specific.

[4] = test system: acetylation of histone H-3 in PC-3 xenograft tumors; test: Western blot of acetylated histone H3 in PC-3 xenograft tumor homogenates; type: in vivo, mice; conditions: 28 days
[5] = Toxicity, body weights and pathological evaluation of treated tumor-bearing mice; type: in vivo, NCr athymic nude mice (nu/nu); conditions: for body weights: measured weekly, compound 42 or 44 oral 50 and 100 mg/kg/day, SAHA i.p. 50 mg/kg/day
Experimental: At the conclusion of the study, complete pathological evaluation of one mouse from each treatment group was performed by board-certified veterinary pathologists at The Ohio State University College of Veterinary Medicine, which included clinical pathology (hematology, serum chemistries) and complete necropsy (gross and microscopic examination of at least 27 different tissues and organs). […] Hematological parameters were within normal limits except for a neutrophilia, which was observed only in mice from both vehicle-treated control groups and the SAHA- and compound 44 (50 mg/kg)-treated groups. Serum chemistry values were consistent with mild dehydration in the vehicle-treated mice, but were within normal limits for all other mice.

[6] = test system: PC-3 xenograft tumors; test: Growth of established subcutaneous PC-3 xenograft tumors; conditions: for suppression of growth of established PC-3 tumors: oral route, 50 and 100 mg/kg/day (either dose); for reduction in the growth of the tumors vs vehicle-treated control: 50 mg/kg/day
Experimental: In the in vivo experiment, PC-3 cells, suspended in equal volumes of serum-free medium and Matrigel basement membrane matrix, were injected subcutaneously into the flanks of 5-7 week old male NCr athymic nude mice (nu/nu) (0.5×10^6 cells/0.1 ml/mouse). […] The control group received p.o. or i.p. vehicle only (0.1% methylcellulose/0.05% Tween 80 in water and DMSO, respectively). Treatments continued until the mean tumor volume of the control group reached approximately 1,500 mm^3. Tumors were measured every week using Vernier calipers and their volumes calculated using a standard formula: width^2×length×0.52.

[7] = test system: JNK; test: Phosphorylation level of JNK in PC-3 cells; type: cell-based
Description: as §1

[8] = test system: chronic lymphocytic leukemia (TLC-1 transgenic mouse model); test: Pilot in vivo study in TLC-1 transgenic mouse model; conditions: 100 mg/kg oral gavage, 5 days on/two days off for 4 weeks
[9] = test system: p38; test: Phosphorylation level of p38 in PC-3 cells; type: cell-based
Description: as §1

[10] = test system: FAK (focal adhesion kinase); test: Phosphorylation level of FAK in PC-3 cells; type: cell-based
Description: as §1

[11] = test system: PC-3 cells; test: cells; conditions: Homo sapiens, PC-3, 72 h, read-out: IC50, PC-3 cell proliferation
[12] = test system: 60 cell lines; test: Sixty-cell line screening by the NCI Developmental Therapeutics Program; type: cell-based; conditions: average against all 60 cell lines; read-out: average GI50 (50% inhibition of cell growth)
[13] = test system: phospho-Akt in PC-3 cells (PTEN-/-); test: Activation status of Akt in PC-3 cells; type: cell-based; conditions: comparable concentrations
Description: The effect of these agents on the activation status of Akt in PC-3 cells (PTEN^−/−) was also examined. Akt is constitutively activated in PC-3 cells due to lack of functional PTEN, which contributes to the androgen independency and chemotherapeutic resistance of these cells.

[14] = test system: DU-145 cells; test: Apoptosis detection by Cell Death ELISA (nucleosomal DNA); type: cell-based
Experimental: Apoptosis Detection by An Enzyme-Linked Immunosorbent Assay (ELISA). Induction of apoptosis was assessed by using a Cell Death ELISA (Roche Diagnostics, Mannheim, Germany) by following the manufacturer's instruction. This test is based on the quantitative determination of cytoplasmic histone-associated DNA fragments in the form of mononucleosomes and oligonucleosomes after induced apoptotic death. In brief, 1×10^6 DU-145 cells were cultured in a T-75 flask 24 h prior to the experiment. Cells were treated with HTPB at the indicated concentrations in 10% FBS-supplemented RPMI 1640 medium. Both floating and adherent cells were collected, cell lysates equivalent to 2×10^3 cells were used in the ELISA.

[15] = test system: DU-145 cells; test: Cell viability assay (MTT); type: cell-based; conditions: Homo sapiens, 10% FBS-supplemented RPMI-1640, read-out: IC50 in growth inhibition
Experimental: Cell viability assay. The effect of HTPB on cell viability was assessed by the MTT {[3-(4,5-dimethylthiazol-2-yl)-2,5-diphenyl-2 H-tetrazolium bromide]} assay in 96-well, flat-bottomed plates, in which 4,000 DU-145 cells/well were seeded. Cells were exposed to HTPB at the indicated concentrations in 10% FBS-supplemented RPMI-1640 medium at 37° C. in 5% CO2 for the indicated time. The medium was removed and replaced by 150 μl of 0.5 mg/ml of MTT in RPMI-1640 medium, and cells were incubated in the CO2 incubator at 37° C. for 2 hours. Supernatants were removed from the wells, and the reduced MTT dye was solubilized with 200 μl/well DMSO. Absorbance was determined on a plate reader at 570 nm. Each treatment was repeated in six wells.

[16] = parent short-chain fatty acid, read-out: HDAC inhibition IC50
[17] = DU-145 nuclear extract, read-out: HDAC inhibition IC50
[18] = DU-145 nuclear extract, running text, read-out: HDAC inhibition IC50
[19] = i.p., 50 mg/kg/day, one mouse per group
[20] = Table 1, representative phenylbutyrate-based HDAC inhibitors, read-out: IC50

- pIC50 [1, 17]: 5.30
Molecule: CCCC(CCC)C(=O)Nc1ccc(CCC(=O)NO)cc1 [compound 8]

- pIC50 [1, 17]: 7.36
- pIC50 [1, 18]: 7.36
- pIC50 [1, 20]: 7.36
- pIC50 [15]: 6.00 to 6.30
Molecule: O=C(CCCc1ccccc1)Nc1ccc(C(=O)NO)cc1 [compound 19, N-Hydroxy-4-(4-phenylbutyrylamino)-benzamide]
- drug concentration above which extensive apoptosis occurred ([14]; 24 h): exceeded 1 μM
- apoptosis (DNA fragmentation) ([14]; 24 h exposure): sensitized DU-145 cells to apoptosis in a dose-dependent manner
- concentration causing hyperacetylation of histones H-3 and H-4 (as low as) [2]: ≤ 0.5 µM
- concentration at which p21WAF/CIP1 level increased substantially (as low as) ([2]; 24 h): ≤ 0.5 µM
- concentration with approximately equal effect on acetylated histones H3/H4 and p21WAF/CIP1 ([2]; 24 h): 1 µM
- levels of acetylated histones H3 and H4, and p21WAF/CIP1 ([2]; 24 h): elevated levels

- pIC50 [1, 16]: 3.40
Molecule: CCCC(CCC)C(=O)O [valproic acid, reference compound]

- pIC50 [1, 20]: 7.42
Molecule: CC[C@@H](C(=O)Nc1ccc(C(=O)NO)cc1)c1ccccc1 [compound 61, N-hydroxy-4-[2-(R)-phenylbutyrylamino]-benzamide]

The remaining lines, values behind:

Molecule: phenylbutyrate
- pIC50 [1, 16]: 3.40
- concentration required for the same effects on histone acetylation and p21WAF/CIP1 expression [2]: at least 2.5 mM
- concentration with approximately equal effect on acetylated histones H3/H4 and p21WAF/CIP1 ([2]; 24 h): 2500 µM
- levels of acetylated histones H3 and H4, and p21WAF/CIP1 ([2]; 24 h): elevated levels

Molecule: CC(C)C(C(=O)Nc1ccc(C(=O)NO)cc1)c1ccccc1 (stereo not drawn) [compound 42, N-Hydroxy-4-(3-methyl-2-phenyl-butyrylamino)-benzamide]
- phosphorylation level of ERKs [3]: diminished in a dose-dependent manner
- acetylation level of histone H3 in PC-3 tumors ([4]; oral, 50 or 100 mg/kg/day): significant increase
- toxicity in tumor-bearing mice ([5]; 28-day course at 50 or 100 mg/kg/day): no demonstrable toxicity
- body weights [5]: stable throughout the study
- overt toxicity (body weights and pathological examination) ([5]; oral, 100 mg/kg/day): absence of overt toxicity
- oral bioavailability ([6]; mouse, in vivo, po): orally bioavailable
- suppression of growth of established PC-3 tumors [6]: effective
- reduction in the growth of the tumors vs vehicle-treated control ([6]; oral): 70.4%
- reduction in PC-3 tumor growth ([6]; oral, 100 mg/kg/day): 91.7%
- phosphorylation level of JNK [7]: remained unaffected
- survival [8]: trend toward improved survival
- toxicity [8]: no notable toxicity
- phosphorylation level of p38 [9]: remained unaffected
- phosphorylation level of FAK [10]: diminished in a dose-dependent manner
- pIC50 [11]: 6.22
- GI50 [12]: 200 nM

Molecule: Nc1ccccc1NC(=O)c1ccc(NC(=O)CCCc2ccccc2)cc1 [compound 55, N-(2-Amino-phenyl)-4-(4-phenyl-butyrylamino)-benzamide]
- pIC50 [1, 17]: 6.40
- drop in HDAC inhibitory potency when hydroxamate of compound 19 is replaced by phenylenediamine ([1]; relative to compound 19): 10 fold

Molecule: CC(/C=C/C(=O)NO)=C\[C@@H](C)C(=O)c1ccc(N(C)C)cc1 [TSA, trichostatin A]
- concentration with approximately equal effect on acetylated histones H3/H4 and p21WAF/CIP1 ([2]; 24 h): 0.25 µM
- levels of acetylated histones H3 and H4, and p21WAF/CIP1 ([2]; 24 h): elevated levels

Molecule: CC(C)(CCc1ccccc1)C(=O)Nc1ccc(C(=O)NO)cc1 [compound 44, 4-(2,2-Dimethyl-4-phenyl-butyrylamino)-N-hydroxy-benzamide]
- body weights [5]: stable throughout the study
- hematological parameters ([5]; oral, 50 mg/kg, one mouse per group): neutrophilia
- suppression of growth of established PC-3 tumors [6]: effective
- pIC50 [1, 18]: 7.49
- pIC50 [11]: 6.10

Molecule: O=C(CCCCCCC(=O)Nc1ccccc1)NO [SAHA, suberoylanilide hydroxamic acid, reference compound]
- acetylation level of histone H3 in PC-3 tumors ([4]; i.p., 50 mg/kg/day): significant increase
- gross pathologic abnormalities at necropsy [5, 19]: small adhesions in the peritoneum
- hematological parameters [5, 19]: neutrophilia
- body weights [5]: stable throughout the study
- reduction in the growth of the tumors vs vehicle-treated control ([6]; i.p.): 69.9%
- effect on phospho-Akt [13]: no appreciable effect
